We go through four compounds from patent publication US20240389587A1, “COMPOSITIONS AND METHODS FOR CONTROLLING PHYTOPATHOGENIC INFECTIONS” (INSTITUT NATIONAL DE RECHERCHE POUR L'AGRICULTURE, …, priority 2021, published 2024).

Read-outs that look alike come from different tables or passages of the source.

One experiment has as its target T1, IRE1 (Saccharomyces cerevisiae, UniProt P32361).
T1 construct: endogenous in cells
The experiment in a line: IRE1 inhibitors screening (inhibition of transcriptional activator HAC1 in yeast). The class given is cell-based. Conditions: for IC50: read-out: IRE1 IC50. An excerpt:
A series of natural products were screened for their capacity to inhibit the UPR pathway via the inhibition of IRE1 in an in vitro screening test, based inhibition of the transcriptional activator HAC1 in Saccharomyces cerevisiae (the IRE1 protein is the ‘sole effector of the UPR pathway in fungi).

A further experiment relates to Botrytis cinerea. The experiment can be described thus: In vitro nephelometric fungal growth test. The settings on record: for CTP (retained non-fungicidal concentration applied in planta): inferior to MIG50 and inferior or equal to Cmax; for IC50: Botrytis cinerea, 33 h, read-out: MIG50 (concentration inducing 50% inhibition of fungal growth).
A further experiment has as its system Alternaria brassicicola. The experiment can be described thus: In vitro nephelometric fungal growth test. Conditions: for Cmax (concentration inducing at most 20% inhibition of fungal growth) / CTP (retained non-fungicidal concentration applied in planta): A. brassicicola; for CTP (retained non-fungicidal concentration applied in planta): inferior to MIG50 and inferior or equal to Cmax; for IC50: Alternaria brassicicola, 33 h, read-out: MIG50 (concentration inducing 50% inhibition of fungal growth).

The mark [1] stands for this setting: in vitro screening, IRE1 activity of less than 80% = retained as IRE1 inhibitor.

T1 sequence (P32361 19-1115): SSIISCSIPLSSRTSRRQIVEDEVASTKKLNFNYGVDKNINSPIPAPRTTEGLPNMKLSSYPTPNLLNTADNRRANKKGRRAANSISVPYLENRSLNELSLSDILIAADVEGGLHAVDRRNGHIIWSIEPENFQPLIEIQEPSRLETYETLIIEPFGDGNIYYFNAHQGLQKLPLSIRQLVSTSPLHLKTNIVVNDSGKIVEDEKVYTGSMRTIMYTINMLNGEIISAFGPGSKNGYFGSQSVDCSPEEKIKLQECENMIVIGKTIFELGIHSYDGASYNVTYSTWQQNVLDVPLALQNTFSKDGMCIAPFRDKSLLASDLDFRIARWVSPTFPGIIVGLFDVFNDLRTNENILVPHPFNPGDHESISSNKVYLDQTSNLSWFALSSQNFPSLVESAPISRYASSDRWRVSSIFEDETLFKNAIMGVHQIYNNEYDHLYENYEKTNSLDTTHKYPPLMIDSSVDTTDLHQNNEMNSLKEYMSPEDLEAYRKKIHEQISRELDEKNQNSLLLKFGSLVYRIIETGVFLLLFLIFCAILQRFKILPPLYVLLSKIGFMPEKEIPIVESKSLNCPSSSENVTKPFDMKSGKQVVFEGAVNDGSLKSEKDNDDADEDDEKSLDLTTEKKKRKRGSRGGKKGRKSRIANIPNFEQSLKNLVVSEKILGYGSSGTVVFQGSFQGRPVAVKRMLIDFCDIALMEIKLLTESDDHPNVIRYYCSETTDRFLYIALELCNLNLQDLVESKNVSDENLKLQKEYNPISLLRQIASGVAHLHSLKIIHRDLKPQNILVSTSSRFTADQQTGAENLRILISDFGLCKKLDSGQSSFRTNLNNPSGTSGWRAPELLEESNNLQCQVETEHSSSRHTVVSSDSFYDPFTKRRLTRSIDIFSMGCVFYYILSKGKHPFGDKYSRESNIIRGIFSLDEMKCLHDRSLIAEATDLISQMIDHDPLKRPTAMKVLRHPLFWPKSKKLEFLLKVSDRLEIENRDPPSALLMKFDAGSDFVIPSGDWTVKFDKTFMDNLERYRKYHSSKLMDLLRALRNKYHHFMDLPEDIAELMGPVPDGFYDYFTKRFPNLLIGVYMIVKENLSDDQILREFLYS
Procedure for Alternaria brassicicola: (§1) For inoculum preparation, conidia of A. brassicicola or B. cinerea were collected from solid culture by adding water followed by gentle scraping of the agar plate. […] Growth was monitored by nephelometric reader (NEPHELOstar Galaxy®, BMG Labtech, Offenburg, Germany) at 25° C., with orbital shaking 5 min before measurement for 33 h. Turbidity was registered every 10 mins with a gain value of 75. Each well was measured during 0.1 s with a laser beam focus of 2.5 mm. A triplicate was realized for each condition. Area under the growth curve was determined by an Excel matrix developed in the lab. Area under the growth curve was normalized by area of positive control (filamentous fungi+DMSO less compound) and PDB medium to obtain a growth percentage.
Procedure for Botrytis cinerea: as §1

On to `CC(C)=CCc1c(O)cc2oc3c(O)cccc3c(=O)c2c1O` [1,3,5-trihydroxy-2-prenylxanthone, 1,3,5-trihydroxy-2-(3-methylbut-2-enyl)xanthen-9-one], for which the “IRE1 inhibition (in words)” value at IRE1 is “inhibit IRE1 in a micromolar scale”. At IRE1 (setting [1]), the “μ (% activation) ± σ” value was found to be 57.4 ± 4.9%. In the experiment on Botrytis cinerea (B. cinerea), the “Cmax (concentration inducing at most 20% inhibition of fungal growth)” value was 100 µM and the “CTP (retained non-fungicidal concentration applied in planta)” value is 25 µM. In the experiment on Botrytis cinerea, the IC50 was more than 100 µM. In addition, in the experiment with Alternaria brassicicola, the “Cmax (concentration inducing at most 20% inhibition of fungal growth)” value is 100 µM, the “CTP (retained non-fungicidal concentration applied in planta)” value is 50 µM and the IC50 was more than 100 µM.

Regarding `CC(C)=CCc1c(O)cc(O)c2c(=O)c3cccc(O)c3oc12` [1,3,5-trihydroxy-4-prenylxanthone, 1,3,5-trihydroxy-4-(3-methylbut-2-enyl)xanthen-9-one], at IRE1, the “IRE1 inhibition (in words)” value was “inhibit IRE1 in a micromolar scale” and the IC50 was 12.8 µM. The “μ (% activation) ± σ” value at IRE1 (setting [1]) is 70.9 ± 3.2%. In the experiment on Botrytis cinerea (B. cinerea), the “Cmax (concentration inducing at most 20% inhibition of fungal growth)” value amounted to 100 µM and the “CTP (retained non-fungicidal concentration applied in planta)” value was found to be 25 µM. Besides, the IC50 in the experiment with Botrytis cinerea is more than 100 µM. Also, in the experiment with Alternaria brassicicola, the “Cmax (concentration inducing at most 20% inhibition of fungal growth)” value is 10 µM, the “CTP (retained non-fungicidal concentration applied in planta)” value came to 10 µM and the IC50 is 41.3 ± 3.7 µM.

Take `O=Cc1cc(I)cc(I)c1O` [DISA1, 3,5-diiodosalicylaldehyde, reference compound]: the “Cmax (concentration inducing at most 20% inhibition of fungal growth)” value with Botrytis cinerea (B. cinerea) amounted to 2.5 µM; with Alternaria brassicicola, 2 µM. The entries for the “CTP (retained non-fungicidal concentration applied in planta)” value in the experiment on Botrytis cinerea (B. cinerea) and in the experiment on Alternaria brassicicola were 2.5 µM and 2 µM, respectively. The IC50 in the experiment on Botrytis cinerea amounted to 6.3 ± 0.7 µM; in the experiment on Alternaria brassicicola, 5.3 ± 0.1 µM.

For `CC(C)=CCc1c(O)cc2oc3cc(O)c(O)c(CC=C(C)C)c3c(=O)c2c1O` [γ-mangostin, 1,3,6,7-tetrahydroxy-2,8-bis(3-methylbut-2-enyl)xanthen-9-one], at IRE1, the “IRE1 inhibition (in words)” value was “inhibit IRE1 in a micromolar scale”, the “μ (% activation) ± σ” value turned out to be 8.7 ± 5.5% and the IC50 stood at 7.3 µM. Besides, in the experiment with Botrytis cinerea (B. cinerea), the “Cmax (concentration inducing at most 20% inhibition of fungal growth)” value was 100 µM and the “CTP (retained non-fungicidal concentration applied in planta)” value was found to be 25 µM. Moreover, the IC50 in the experiment on Botrytis cinerea is more than 100 µM. Also, the “effect on the antifungal effects of ε-viniferin (in words)” value in the experiment with Botrytis cinerea (γ-mangostin 100 μM + ε-viniferin 100 μM, B. cinerea, 35 hours) is listed as “potentiating effect”. Besides, in the experiment on Alternaria brassicicola, the “Cmax (concentration inducing at most 20% inhibition of fungal growth)” value came to 5 µM, the “CTP (retained non-fungicidal concentration applied in planta)” value worked out at 5 µM and the IC50 turned out to be 12.2 ± 0.2 µM.
